Results reported in the NIST ThermoML archive (doi:10.1016/j.jct.2015.08.033).

Assay: mn = molality of the nth substance listed, in mol/kg
Conditions: 100 kPa, Liquid; for speed of sound: Frequency=3 MHz, Sing-around technique in a fixed-path interferometer; for mass density: Vibrating tube method

O=S(=O)([O-])C(F)(F)F.O=S(=O)([O-])C(F)(F)F.[Ca+2] [calcium trifluoromethanesulfonate] + CC(=O)N(C)C
Conditions	mass density, 298.15 K [kg/m3]	mass density, 303.15 K [kg/m3]	mass density, 308.15 K [kg/m3]	mass density, 313.15 K [kg/m3]	mass density, 318.15 K [kg/m3]	speed of sound, 298.15 K [m/s]	speed of sound, 303.15 K [m/s]	speed of sound, 308.15 K [m/s]	speed of sound, 313.15 K [m/s]	speed of sound, 318.15 K [m/s]
m1 = 0.02187	940.927	936.332	931.736	927.121	922.5	1457	1437.3	1417.6	1398	1378.6
m1 = 0.03271	943.201	938.61	934.019	929.41	924.794	1457.4	1437.8	1418.2	1398.7	1379.3
m1 = 0.04637	946.038	941.451	936.856	932.246	927.636	1458	1438.5	1419	1399.4	1380
m1 = 0.06551	949.951	945.373	940.788	936.196	931.596	1458.5	1439	1419.5	1400.2	1380.9
m1 = 0.08271	953.447	948.878	944.3	939.716	935.124	1459	1439.6	1420.2	1400.9	1381.7
m1 = 0.1052	957.976	953.415	948.847	944.27	939.688	1459.6	1440.3	1421	1401.8	1382.7
m1 = 0.1305	963.026	958.471	953.91	949.342	944.771	1460.3	1441	1421.8	1402.7	1383.7
m1 = 0.1577	968.401	963.856	959.304	954.745	950.183	1460.9	1441.8	1422.7	1403.7	1384.8
m1 = 0.1977	976.212	971.679	967.14	962.594	958.045	1461.8	1442.8	1423.9	1405	1386.2

O=S(=O)([O-])C(F)(F)F.O=S(=O)([O-])C(F)(F)F.[Ca+2] [calcium trifluoromethanesulfonate] + CN(C)C=O
Conditions	mass density, 298.15 K [kg/m3]	mass density, 303.15 K [kg/m3]	mass density, 308.15 K [kg/m3]	mass density, 313.15 K [kg/m3]	mass density, 318.15 K [kg/m3]	speed of sound, 298.15 K [m/s]	speed of sound, 303.15 K [m/s]	speed of sound, 308.15 K [m/s]	speed of sound, 313.15 K [m/s]	speed of sound, 318.15 K [m/s]
m1 = 0.01106	946.239	941.472	936.692	931.892	927.09	1457.3	1438.1	1418.8	1399.6	1380.3
m1 = 0.01878	947.845	943.075	938.305	933.505	928.705	1457.4	1438.2	1418.9	1399.7	1380.6
m1 = 0.02772	949.696	944.925	940.169	935.363	930.568	1457.4	1438.3	1419	1399.9	1380.8
m1 = 0.03952	952.113	947.355	942.581	937.793	932.985	1457.4	1438.3	1419.2	1400.1	1381.1
m1 = 0.05628	955.509	950.747	945.976	941.193	936.398	1457.5	1438.3	1419.2	1400.2	1381.2
m1 = 0.06961	958.2	953.444	948.677	943.893	939.103	1457.3	1438.3	1419.3	1400.3	1381.4
m1 = 0.08918	962.098	957.344	952.579	947.802	943.015	1457.1	1438.2	1419.2	1400.3	1381.5
m1 = 0.1114	966.493	961.744	956.98	952.205	947.419	1456.8	1438	1419.1	1400.3	1381.6
m1 = 0.1344	971.012	966.262	961.501	956.728	951.947	1456.6	1437.8	1419	1400.3	1381.6
m1 = 0.1671	977.356	972.601	967.839	963.068	958.29	1456.4	1437.6	1418.8	1400.2	1381.6
